# Measured values as given in US6677466B1, “Method for stabilizing hydrogen peroxide” (DSM Fine Chemicals Austria NFG GmbH & Co KG, priority 1999, dated 2004).
# Experiment: O2 evolution from [Mn2O3{Me3tacn}2](PF6)2-catalysed decomposition of H2O2 with stabilizer
# Format: physicochemical
# Method: A 50% strength aqueous solution of H2O2 (304 mg; 4.46 mmol) was added to 454 mg (4.46 mmol) of methyl pyruvate and to 535 mg (4.46 mmol) of glyoxylic methyl ester methyl hemiacetal, respectively. In the case of methyl pyruvate, a marked evolution of heat was discovered during the addition. After one hour, the H2O2/α-keto ester mixture was mixed with 1 ml of solvent and added to a suspension of 1.0 mg of [Mn2O3{Me3tacn}2](PF6)2 catalyst in 4 ml of solvent. The suspension was introduced into a 50 ml flask which was maintained at room temperature in a water bath. As a result of this addition, in cases where undissolved catalyst was still present, the catalyst dissolved completely.
# As a comparison, a suspension of 1.0 mg of [Mn2O3{Me3tacn}2](PF6)2 catalyst in 4 ml of solvent was combined with a 50% strength aqueous solution of H2O2 (304 mg; 4.46 mmol) and 1 ml of solvent without stabilizer.
# The amount of oxygen which was evolved from the decomposition of the hydrogen peroxide was determined as a function of time using a Brooks meter, which permitted measurement of the gas flow and the total amount of evolved gas.
smiles,measurement,setting,value
"COC(=O)C(O)OC (stereo not drawn) [GMHA, glyoxylic methyl ester methyl hemiacetal]",O2 evolution V(O2) (Vmax(O2)*100%),"solv. acetic acid, t 5 min",0%
same,O2 evolution V(O2) (Vmax(O2)*100%),"solv. acetic acid, t 10 min",2%
same,O2 evolution V(O2) (Vmax(O2)*100%),"solv. acetic acid, t 15 min",3%
same,O2 evolution V(O2) (Vmax(O2)*100%),"solv. acetic acid, t 20 min",3%
same,O2 evolution V(O2) (Vmax(O2)*100%),"solv. acetic acid, t 25 min",3%
same,O2 evolution V(O2) (Vmax(O2)*100%),"solv. acetic acid, t 30 min",3%
same,O2 evolution V(O2) (Vmax(O2)*100%),"solv. acetic acid, t 35 min",3%
same,O2 evolution V(O2) (Vmax(O2)*100%),"solv. acetic acid, t 40 min",3%
same,O2 evolution V(O2) (Vmax(O2)*100%),"solv. acetic acid, t 50 min",3%
same,O2 evolution V(O2) (Vmax(O2)*100%),"solv. acetic acid, t 60 min",3%
same,O2 evolution V(O2) (Vmax(O2)*100%),"solv. acetic acid, t 70 min",3%
same,O2 evolution V(O2) (Vmax(O2)*100%),"solv. acetic acid, t 80 min",3%
same,O2 evolution V(O2) (Vmax(O2)*100%),"solv. acetone, t 5 min",0%
same,O2 evolution V(O2) (Vmax(O2)*100%),"solv. acetone, t 10 min",0%
same,O2 evolution V(O2) (Vmax(O2)*100%),"solv. acetone, t 15 min",0%
same,O2 evolution V(O2) (Vmax(O2)*100%),"solv. acetone, t 20 min",0%
same,O2 evolution V(O2) (Vmax(O2)*100%),"solv. acetone, t 25 min",0%
same,O2 evolution V(O2) (Vmax(O2)*100%),"solv. acetone, t 30 min",0%
same,O2 evolution V(O2) (Vmax(O2)*100%),"solv. acetone, t 35 min",0%
same,O2 evolution V(O2) (Vmax(O2)*100%),"solv. acetone, t 40 min",0%
same,O2 evolution V(O2) (Vmax(O2)*100%),"solv. acetone, t 50 min",0%
same,O2 evolution V(O2) (Vmax(O2)*100%),"solv. acetone, t 60 min",9%
same,O2 evolution V(O2) (Vmax(O2)*100%),"solv. acetone, t 70 min",12%
same,O2 evolution V(O2) (Vmax(O2)*100%),"solv. acetone, t 80 min",12%
same,O2 evolution V(O2) (Vmax(O2)*100%),"solv. acetonitrile, t 5 min",0%
same,O2 evolution V(O2) (Vmax(O2)*100%),"solv. acetonitrile, t 10 min",0%
same,O2 evolution V(O2) (Vmax(O2)*100%),"solv. acetonitrile, t 15 min",0%
same,O2 evolution V(O2) (Vmax(O2)*100%),"solv. acetonitrile, t 20 min",0%
same,O2 evolution V(O2) (Vmax(O2)*100%),"solv. acetonitrile, t 25 min",0%
same,O2 evolution V(O2) (Vmax(O2)*100%),"solv. acetonitrile, t 30 min",0%
same,O2 evolution V(O2) (Vmax(O2)*100%),"solv. acetonitrile, t 35 min",0%
same,O2 evolution V(O2) (Vmax(O2)*100%),"solv. acetonitrile, t 40 min",0%
same,O2 evolution V(O2) (Vmax(O2)*100%),"solv. acetonitrile, t 50 min",0%
same,O2 evolution V(O2) (Vmax(O2)*100%),"solv. acetonitrile, t 60 min",0%
same,O2 evolution V(O2) (Vmax(O2)*100%),"solv. acetonitrile, t 70 min",0%
same,O2 evolution V(O2) (Vmax(O2)*100%),"solv. acetonitrile, t 80 min",0%
same,O2 evolution V(O2) (Vmax(O2)*100%),"solv. ethyl acetate, t 5 min",0%
same,O2 evolution V(O2) (Vmax(O2)*100%),"solv. ethyl acetate, t 10 min",4%
same,O2 evolution V(O2) (Vmax(O2)*100%),"solv. ethyl acetate, t 15 min",8%
same,O2 evolution V(O2) (Vmax(O2)*100%),"solv. ethyl acetate, t 20 min",9%
same,O2 evolution V(O2) (Vmax(O2)*100%),"solv. ethyl acetate, t 25 min",9%
same,O2 evolution V(O2) (Vmax(O2)*100%),"solv. ethyl acetate, t 30 min",9%
same,O2 evolution V(O2) (Vmax(O2)*100%),"solv. ethyl acetate, t 35 min",9%
same,O2 evolution V(O2) (Vmax(O2)*100%),"solv. ethyl acetate, t 40 min",9%
same,O2 evolution V(O2) (Vmax(O2)*100%),"solv. ethyl acetate, t 50 min",9%
same,O2 evolution V(O2) (Vmax(O2)*100%),"solv. ethyl acetate, t 60 min",9%
same,O2 evolution V(O2) (Vmax(O2)*100%),"solv. ethyl acetate, t 70 min",9%
same,O2 evolution V(O2) (Vmax(O2)*100%),"solv. ethyl acetate, t 80 min",9%
same,O2 evolution V(O2) (Vmax(O2)*100%),"solv. methanol, t 5 min",1%
same,O2 evolution V(O2) (Vmax(O2)*100%),"solv. methanol, t 10 min",1%
same,O2 evolution V(O2) (Vmax(O2)*100%),"solv. methanol, t 15 min",1%
same,O2 evolution V(O2) (Vmax(O2)*100%),"solv. methanol, t 20 min",1%
same,O2 evolution V(O2) (Vmax(O2)*100%),"solv. methanol, t 25 min",1%
same,O2 evolution V(O2) (Vmax(O2)*100%),"solv. methanol, t 30 min",1%
same,O2 evolution V(O2) (Vmax(O2)*100%),"solv. methanol, t 35 min",1%
same,O2 evolution V(O2) (Vmax(O2)*100%),"solv. methanol, t 40 min",1%
same,O2 evolution V(O2) (Vmax(O2)*100%),"solv. methanol, t 50 min",1%
same,O2 evolution V(O2) (Vmax(O2)*100%),"solv. methanol, t 60 min",1%
same,O2 evolution V(O2) (Vmax(O2)*100%),"solv. methanol, t 70 min",1%
same,O2 evolution V(O2) (Vmax(O2)*100%),"solv. methanol, t 80 min",1%
same,O2 evolution V(O2) (Vmax(O2)*100%),"solv. t-butanol, t 5 min",0%
same,O2 evolution V(O2) (Vmax(O2)*100%),"solv. t-butanol, t 10 min",0%
same,O2 evolution V(O2) (Vmax(O2)*100%),"solv. t-butanol, t 15 min",0%
same,O2 evolution V(O2) (Vmax(O2)*100%),"solv. t-butanol, t 20 min",0%
same,O2 evolution V(O2) (Vmax(O2)*100%),"solv. t-butanol, t 25 min",0%
same,O2 evolution V(O2) (Vmax(O2)*100%),"solv. t-butanol, t 30 min",0%
same,O2 evolution V(O2) (Vmax(O2)*100%),"solv. t-butanol, t 35 min",0%
same,O2 evolution V(O2) (Vmax(O2)*100%),"solv. t-butanol, t 40 min",0%
same,O2 evolution V(O2) (Vmax(O2)*100%),"solv. t-butanol, t 50 min",0%
same,O2 evolution V(O2) (Vmax(O2)*100%),"solv. t-butanol, t 60 min",0%
same,O2 evolution V(O2) (Vmax(O2)*100%),"solv. t-butanol, t 70 min",0%
same,O2 evolution V(O2) (Vmax(O2)*100%),"solv. t-butanol, t 80 min",0%
